Measurements from patent publication US6677336B2, “Substituted piperazine compounds” (CV Therapeutics, Inc., priority 2000, dated 2004).
Blank lines part the entries; values can stand above or below the compound they belong to.

How the values were obtained:
[1] = system: mitochondrial fatty acid oxidation (rat heart mitochondria); assay: Palmitoyl CoA oxidation in isolated rat heart mitochondria; format: biochemical; conditions: 15 min at 30° C, DMSO control
Description: Compounds of this invention were evaluated in a rat heart mitochondiral assay as set forth below.
(§1) Rat heart mitochondria were isolated by the method of Nedergard and Cannon (methods in Enzymol. 55, 3, 1979).
Palmitoyl CoA oxidation—The Palmityl CoA oxidation was carried out in a total volume of 100 micro liters containing the following agents: 110 mM KCl, 33 mM Tris buffer at pH 8, 2 mM KPi, 2 mM MgCl2, 0.1 mM EDTA, 14.7 microM defatted BSA, 0.5 mM malic acid, 13 mM carnitine, 1 mM ADP, 52 micrograms of mitochondrial protein, and 16 microM 1-C14 palmitoyl CoA (Sp. Activity 60 mCi/mmole; 20 microCi/ml, using 5 microliters per assay). The compounds of this invention were added in a DMSO solution at the following concentrations: 100 microM, 30 microM, and 3 microM. In each assay, a DMSO control was used. After 15 min at 30° C., the enzymatic reaction was centrifuged (20,000 g for 1 min), and 70 microliters of the supernatant was added to an activated reverse phase silicic acid column (approximately 0.5 ml of silicic acid). The column was eluted with 2 ml of water, and 0.5 ml of the eluent was used for scintillation counting to determine the amount of C^14 trapped as C^14 bicarbonate ion.

[2] = system: mitochondrial fatty acid oxidation (rat heart mitochondria); assay: Palmitoyl carnitine oxidation in isolated rat heart mitochondria; format: biochemical; conditions: 15 min at 30° C, DMSO control
Description: as §1
The Palmitoyl carnitine oxidation was carried out in a total volume of 100 microliters containing the following agents: 110 mM KCl, 33 mM Tris buffer at pH 8, 2 mM KPi, 2 mM MgCl2, 0.1 mM EDTA, 0.1 mg/ml of defatted BSA, 0.5 mM malic acid, 3 mM ADP, 52 micrograms of mitochondrial protein, and 43 microM 1-C14 palmitoyl carnitine (Sp. Activity 60 mCi/mmole; 20 microCi/ml, using 5 microliters per assay). The compounds of this invention were added in a DMSO solution at the following concentrations: 100 microM, 30 microM, and 3 microM. In each assay, a DMSO control was used. After 15 min at 30° C., the enzymatic reaction was centrifuged (20,000 g for 1 min), and 70 microliters of the supernatant was added to an activated reverse phase silicic acid column (approximately 0.5 ml of silicic acid). The column was eluted with 2 ml of water, and 0.5 ml of the eluent was used for scintillation counting to determine the amount of C^14 trapped as C^14 bicarbonate ion. The data are presented as % activity of control in Table 3, below.

[3] = Metabolic stability in human liver S-9 fractions; conditions: human liver S9, 30 min at 37 C; for Liver S9 Parent Present relative to Ranolazine: 10 μM, % parent remaining divided by average % ranolazine remaining (57%)
Description: After, 30 minutes at 37 C, the amount of parent drug remaining was determined using LC-mass spec. The response factors for each compound was determined by establishing a standard curve and using an internal standard during the analysis of the samples. […] The compounds of this invention were assayed as described in the protocol below and the percentage of parent remaining was divided by the average % of ranolazine remaining (57%) affording a metabolic stability factor.
The purpose of this experiment is to compare the percentages remaining for compounds of this invention with the percentage remaining for ranolazine after 30 minutes of incubation with human liver S9 fractions.
The following reagents were used; Potassium phosphate, 0.5M pH 7.4 (incubation buffer), kept at room temperature; 0.05M MgCl2 kept at 4° C.; P-Nicotinamide adenine dinucleotide phosphate, tetrasodium salt, reduced form (NADPH), 0.02M solution in water (˜16.6mg/mL) from Sigma Lot #79H7044 prepared on day of use. 1 mM of ranolazine or Compounds 43, 45, 47, 52, 70, 74, 76, 78, and 80 in ACN further diluted to obtain 100 μM in 10% ACN; Human S9 stock: 20 mg/mL from Gentest.
Incubation mixtures were prepared as follows:
Combine all components with incubation buffer and re-pipette 200 μL/tube+25 μL of the compound being tested along with 25 μL of S-9.
After 5 min of pre-incubation at 37° C., at 0 and 30 min after starting the reaction, a 50 μl aliquot of the incubation mixture was removed and added to 100 μL of 9:1 acetonitrile: methanol containing the internal standard.
The mixture was centrifuged and a 100 μL aliquot of the supernatant was diluted in 1 mL of solvent C (0.1% Formic Acid in water). Then samples were analyzed for change between the ratio of compound to internal standard at time zero and 30 minutes by LC/MS (injected 10 EL).
Samples were analyzed for the starting compounds and potential metabolite/s by LC/MS using an internal standard and an ODS-C18 column with a flow rate of 0.25 ml/min.

SMILES: COc1ccccc1OCC(O)CN1CCN(CC(=O)Nc2c(C)cccc2C)CC1(C)C (stereo not shown) [Compound 18, N-(2,6-dimethylphenyl)-2-{4-[2-hydroxy-3-(2-methoxyphenoxy)propyl]-3,3-dimethylpiperazinyl}acetamide]
Inhibition of mitochondrial fatty acid oxidation using palmitoyl CoA as substrate - % of Control ([1]; 100 μM compound): 80%
Inhibition of mitochondrial fatty acid oxidation using palmitoyl carnitine as substrate - % of Control ([2]; 100 μM compound): 17%

SMILES: COc1ccccc1OCC(O)CN1C(C)CN(CC(=O)Nc2c(C)cccc2C)CC1C (stereo not shown) [Compound 7, N-(2,6-dimethylphenyl)-2-{4-[2-hydroxy-3-(2-methoxy)propyl]-3,5-dimethylpiperazinyl}acetamide]
Inhibition of mitochondrial fatty acid oxidation using palmitoyl CoA as substrate - % of Control ([1]; 3 μM compound): 107%
Inhibition of mitochondrial fatty acid oxidation using palmitoyl CoA as substrate - % of Control ([1]; 30 μM compound): 98%
Inhibition of mitochondrial fatty acid oxidation using palmitoyl CoA as substrate - % of Control ([1]; 100 μM compound): 85%
Inhibition of mitochondrial fatty acid oxidation using palmitoyl carnitine as substrate - % of Control ([2]; 3 μM compound): 109%
Inhibition of mitochondrial fatty acid oxidation using palmitoyl carnitine as substrate - % of Control ([2]; 30 μM compound): 102%
Inhibition of mitochondrial fatty acid oxidation using palmitoyl carnitine as substrate - % of Control ([2]; 100 μM compound): 95%

Liver S9 Parent Present relative to Ranolazine [3]: 0.45
SMILES: COc1ccccc1OCC(O)CN1CCN(CC(=O)Nc2c(C)cccc2C)C2CCCCC21 (stereo not shown) [Compound 17]
Inhibition of mitochondrial fatty acid oxidation using palmitoyl CoA as substrate - % of Control ([1]; 3 μM compound): 100%
Inhibition of mitochondrial fatty acid oxidation using palmitoyl CoA as substrate - % of Control ([1]; 30 μM compound): 98%
Inhibition of mitochondrial fatty acid oxidation using palmitoyl CoA as substrate - % of Control ([1]; 100 μM compound): 89%
Inhibition of mitochondrial fatty acid oxidation using palmitoyl carnitine as substrate - % of Control ([2]; 3 μM compound): 103%
Inhibition of mitochondrial fatty acid oxidation using palmitoyl carnitine as substrate - % of Control ([2]; 30 μM compound): 88%
Inhibition of mitochondrial fatty acid oxidation using palmitoyl carnitine as substrate - % of Control ([2]; 100 μM compound): 80%

Liver S9 Parent Present relative to Ranolazine [3]: 1.0
percentage of parent drug remaining at the 30 minute time point ([3]; average of five experiments): 57%
SMILES: COc1ccccc1OCC(O)CN1CCN(CC(=O)Nc2c(C)cccc2C)CC1 (racemic) [Ranolazine, (±)-N-(2,6-dimethylphenyl)-4-[2-hydroxy-3-(2-methoxyphenoxy)-propyl]-1-piperazineacetamide, reference compound]
Inhibition of mitochondrial fatty acid oxidation using palmitoyl CoA as substrate - % of Control ([1]; 30 μM compound): 90%
Inhibition of mitochondrial fatty acid oxidation using palmitoyl CoA as substrate - % of Control ([1]; 100 μM compound): 75%
Inhibition of mitochondrial fatty acid oxidation using palmitoyl carnitine as substrate - % of Control ([2]; 30 μM compound): 98%
Inhibition of mitochondrial fatty acid oxidation using palmitoyl carnitine as substrate - % of Control ([2]; 100 μM compound): 63%

Liver S9 Parent Present relative to Ranolazine [3]: 1.20
SMILES: COc1ccccc1OCC(O)CN1C[C@@H](C)N(CC(=O)Nc2c(C)cccc2C)C[C@@H]1C (stereo partly drawn) [Compound 15, 2-{(5S,2R)-4-[2-hydroxy-3-(2-methoxyphenoxy)propyl]-2,5-dimethylpiperazinyl}-N-(2,6-dimethylphenyl)acetamide]
Inhibition of mitochondrial fatty acid oxidation using palmitoyl CoA as substrate - % of Control ([1]; 3 μM compound): 103%
Inhibition of mitochondrial fatty acid oxidation using palmitoyl CoA as substrate - % of Control ([1]; 30 μM compound): 97%
Inhibition of mitochondrial fatty acid oxidation using palmitoyl CoA as substrate - % of Control ([1]; 100 μM compound): 78%
Inhibition of mitochondrial fatty acid oxidation using palmitoyl carnitine as substrate - % of Control ([2]; 3 μM compound): 106%
Inhibition of mitochondrial fatty acid oxidation using palmitoyl carnitine as substrate - % of Control ([2]; 30 μM compound): 98%
Inhibition of mitochondrial fatty acid oxidation using palmitoyl carnitine as substrate - % of Control ([2]; 100 μM compound): 82%

SMILES: COc1cc(NC(=O)CN2CCN(C[C@H](O)COc3ccccc3F)[C@@H](C)C2)cc(C(F)(F)F)c1 [Compound 28, 2-{(3S)-4-[(2S)-3-(2-fluorophenoxy)-2-hydroxypropyl]-3-methylpiperazinyl}-N-(5-methoxy-3-(trifluoromethyl)phenyl]acetamide]
Inhibition of mitochondrial fatty acid oxidation using palmitoyl CoA as substrate - % of Control ([1]; 100 μM compound): 59%

SMILES: Cc1cccc(CO)c1NC(=O)CN1CCN(C[C@H](O)COc2ccccc2F)[C@@H](C)C1 [Compound 62]
Inhibition of mitochondrial fatty acid oxidation using palmitoyl CoA as substrate - % of Control ([1]; 100 μM compound): 66%

SMILES: COc1ccc(NC(=O)CN2CCN(C[C@H](O)COc3ccccc3F)[C@@H](C)C2)cc1 [Compound 47, 2-{(3S)-4-[(2S)-3-(2-fluorophenoxy)-2-hydroxypropyl]-3-methylpiperazinyl}-N-(4-methoxyphenyl)acetamide]
Inhibition of mitochondrial fatty acid oxidation using palmitoyl CoA as substrate - % of Control ([1]; 100 μM compound): 80%

SMILES: Cc1cccc(NC(=O)CN2CCN(C[C@H](O)COc3ccccc3F)[C@@H](C)C2)c1 [Compound 49, 2-{(3S)-4-[(2S)-3-(2-fluorophenoxy)-2-hydroxypropyl]-3-methylpiperazinyl}-N-(3-methylphenyl)acetamide]
Inhibition of mitochondrial fatty acid oxidation using palmitoyl CoA as substrate - % of Control ([1]; 100 μM compound): 66%

SMILES: C[C@H]1CN(CC(=O)Nc2ccccc2Cl)CCN1C[C@H](O)COc1ccccc1F [Compound 34, 2-{(3S)-4-[(2S)-3-(2-fluorophenoxy)-2-hydroxypropyl]-3-methylpiperazinyl}-N-(2-chlorophenyl)acetamide]
Inhibition of mitochondrial fatty acid oxidation using palmitoyl CoA as substrate - % of Control ([1]; 100 μM compound): 48%

SMILES: Cc1cccc(C)c1NC(=O)CN1CCN(CC(O)CCOc2ccc(C(C)(C)C)cc2)CC1 (stereo not shown) [Compound 22]
Inhibition of mitochondrial fatty acid oxidation using palmitoyl CoA as substrate - % of Control ([1]; 100 μM compound): 16%
Inhibition of mitochondrial fatty acid oxidation using palmitoyl carnitine as substrate - % of Control ([2]; 100 μM compound): 25%

SMILES: Cc1cccc(C(C)C)c1NC(=O)CN1CCN(C[C@H](O)COc2ccccc2F)[C@@H](C)C1 [Compound 38, 2-{(3S)-4-[(2S)-3-(2-fluorophenoxy)-2-hydroxypropyl]-3-methylpiperazinyl}-N-[6-methyl-2-(methylethyl)phenyl]acetamide]
Inhibition of mitochondrial fatty acid oxidation using palmitoyl CoA as substrate - % of Control ([1]; 100 μM compound): 78%

SMILES: COc1ccc(NC(=O)CN2CCN(C[C@H](O)COc3ccccc3F)[C@@H](C)C2)cc1F [Compound 58, 2-{(3S)-4-[(2S)-3-(2-fluorophenoxy)-2-hydroxypropyl]-3-methylpiperazinyl}-N-(3-fluoro-4-methoxyphenyl)acetamide]
Inhibition of mitochondrial fatty acid oxidation using palmitoyl CoA as substrate - % of Control ([1]; 100 μM compound): 81%

SMILES: Cc1ccc(NC(=O)CN2CCN(C[C@H](O)COc3ccccc3F)[C@@H](C)C2)cc1 [Compound 48, 2-{(3S)-4-[(2S)-3-(2-fluorophenoxy)-2-hydroxypropyl]-3-methylpiperazinyl}-N-(4-methylphenyl)acetamide]
Inhibition of mitochondrial fatty acid oxidation using palmitoyl CoA as substrate - % of Control ([1]; 100 μM compound): 61%

SMILES: C[C@H]1CN(CC(=O)Nc2cccc(Cl)c2)CCN1C[C@H](O)COc1ccccc1F [Compound 45, 2-{(3S)-4-[(2S)-3-(2-fluorophenoxy)-2-hydroxypropyl]-3-methylpiperazinyl}-N-(3-chlorophenyl)acetamide]
Inhibition of mitochondrial fatty acid oxidation using palmitoyl CoA as substrate - % of Control ([1]; 100 μM compound): 58%

Liver S9 Parent Present relative to Ranolazine [3]: 0.15
SMILES: COc1ccccc1OCC(O)CN1CCN(CC(=O)Nc2c(C)cccc2C)C(=O)C1 (stereo not shown) [Compound 16, N-(2,6-dimethylphenyl)-2-{4-[2-hydroxy-3-(2-methoxyphenoxy)propyl]-2-oxopiperazinyl}acetamide]
Inhibition of mitochondrial fatty acid oxidation using palmitoyl CoA as substrate - % of Control ([1]; 30 μM compound): 96%
Inhibition of mitochondrial fatty acid oxidation using palmitoyl CoA as substrate - % of Control ([1]; 100 μM compound): 100%
Inhibition of mitochondrial fatty acid oxidation using palmitoyl carnitine as substrate - % of Control ([2]; 100 μM compound): 64%
